Measurements published in ChEMBL document CHEMBL4507310, “Data for DCP probe A-1211212” (2021).

Legend:
[1] = target: Prostaglandin G/H synthase 1 (Homo sapiens) (UniProt P23219); test: COX1(h) Eurofins-Cerep enzyme and uptake assay; conditions: Compound concentration 10.0 uM
[2] = target: Adenosine receptor A2b (Homo sapiens) (UniProt P29275); test: A2B (h) Eurofins-Cerep binding assay; parameters: ligand concentration 5 nM; conditions: filed as antagonist, Compound concentration 10.0 uM
[3] = target: Endothelin receptor type B (Homo sapiens) (UniProt P24530); test: ETB (h) Eurofins-Cerep binding assay; parameters: ligand concentration 0.03 nM; conditions: filed as agonist, Compound concentration 10.0 uM
[4] = target: 5-hydroxytryptamine receptor 1B (Homo sapiens) (UniProt P28222); test: 5-HT1B(h) Eurofins-Cerep binding assay; parameters: ligand concentration 1 nM; conditions: filed as antagonist, Compound concentration 10.0 uM
Sequence of 5-hydroxytryptamine receptor 1B (Homo sapiens) (P28222 whole entry): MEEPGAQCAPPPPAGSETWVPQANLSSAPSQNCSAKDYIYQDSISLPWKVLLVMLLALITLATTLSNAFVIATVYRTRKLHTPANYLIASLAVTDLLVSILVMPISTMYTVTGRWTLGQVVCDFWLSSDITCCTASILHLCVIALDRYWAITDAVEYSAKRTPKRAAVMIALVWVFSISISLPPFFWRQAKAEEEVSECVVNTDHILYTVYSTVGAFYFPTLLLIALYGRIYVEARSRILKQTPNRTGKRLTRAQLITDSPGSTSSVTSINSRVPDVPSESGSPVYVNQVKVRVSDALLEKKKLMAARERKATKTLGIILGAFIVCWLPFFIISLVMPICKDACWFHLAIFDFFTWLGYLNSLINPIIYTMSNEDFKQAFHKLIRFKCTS

[5] = target: Sigma non-opioid intracellular receptor 1 (Homo sapiens) (UniProt Q99720); test: sigma (non-selective) (h) Eurofins-Cerep binding assay; parameters: ligand concentration 10 nM; conditions: filed as agonist, Compound concentration 10.0 uM
Na+ channel (site 2) = Na+ channel (site 2) (Rattus norvegicus, UniProt F1LQQ7+O08562+O88420+O88457+P04774+P04775+P08104+P15389+P15390+Q62968); test: Na+ channel (site 2) Eurofins-Cerep binding assay; type: protein assay; parameters: incubation time 60 min, incubation temperature 37°C, ligand concentration 10 nM; conditions: rat cerebral cortex, probe [3H]batrachotoxin (10 nM), compound concentration 10 uM, read-out: % Inhibition of Control Specific Binding (Mean n=2)
[6] = test system: Tyrosine-protein kinase ABL1 (Homo sapiens), P00519 [M351T]; conditions: Compound concentration 1000.0 nM
[7] = target: Activin receptor type-1-like (Homo sapiens) (UniProt P37023); conditions: Compound concentration 1000.0 nM
[8] = test system: ALK tyrosine kinase receptor (Homo sapiens), Q9UM73 [C1156Y]; conditions: Compound concentration 1000.0 nM
[9] = target: Calcium/calmodulin-dependent protein kinase type 1G (Homo sapiens) (UniProt Q96NX5); conditions: Compound concentration 1000.0 nM
[10] = target: Calcium/calmodulin-dependent protein kinase type II subunit delta (Homo sapiens) (UniProt Q13557); conditions: Compound concentration 1000.0 nM
[11] = target: Calcium/calmodulin-dependent protein kinase type IV (Homo sapiens) (UniProt Q16566); conditions: Compound concentration 1000.0 nM
[12] = target: Cyclin-dependent kinase 13 (Homo sapiens) (UniProt Q14004); conditions: Compound concentration 1000.0 nM
[13] = target: Serine/threonine-protein kinase DCLK3 (Homo sapiens) (UniProt Q9C098); conditions: Compound concentration 1000.0 nM
[14] = target: Serine/threonine-protein kinase MRCK gamma (Homo sapiens) (UniProt Q6DT37); conditions: Compound concentration 1000.0 nM
[15] = test system: Epidermal growth factor receptor (Homo sapiens), P00533 [UNDEFINED MUTATION]; conditions: Compound concentration 1000.0 nM
Sequence of Epidermal growth factor receptor (Homo sapiens), P00533 [UNDEFINED MUTATION] (P00533 whole entry, looked up, change not shown): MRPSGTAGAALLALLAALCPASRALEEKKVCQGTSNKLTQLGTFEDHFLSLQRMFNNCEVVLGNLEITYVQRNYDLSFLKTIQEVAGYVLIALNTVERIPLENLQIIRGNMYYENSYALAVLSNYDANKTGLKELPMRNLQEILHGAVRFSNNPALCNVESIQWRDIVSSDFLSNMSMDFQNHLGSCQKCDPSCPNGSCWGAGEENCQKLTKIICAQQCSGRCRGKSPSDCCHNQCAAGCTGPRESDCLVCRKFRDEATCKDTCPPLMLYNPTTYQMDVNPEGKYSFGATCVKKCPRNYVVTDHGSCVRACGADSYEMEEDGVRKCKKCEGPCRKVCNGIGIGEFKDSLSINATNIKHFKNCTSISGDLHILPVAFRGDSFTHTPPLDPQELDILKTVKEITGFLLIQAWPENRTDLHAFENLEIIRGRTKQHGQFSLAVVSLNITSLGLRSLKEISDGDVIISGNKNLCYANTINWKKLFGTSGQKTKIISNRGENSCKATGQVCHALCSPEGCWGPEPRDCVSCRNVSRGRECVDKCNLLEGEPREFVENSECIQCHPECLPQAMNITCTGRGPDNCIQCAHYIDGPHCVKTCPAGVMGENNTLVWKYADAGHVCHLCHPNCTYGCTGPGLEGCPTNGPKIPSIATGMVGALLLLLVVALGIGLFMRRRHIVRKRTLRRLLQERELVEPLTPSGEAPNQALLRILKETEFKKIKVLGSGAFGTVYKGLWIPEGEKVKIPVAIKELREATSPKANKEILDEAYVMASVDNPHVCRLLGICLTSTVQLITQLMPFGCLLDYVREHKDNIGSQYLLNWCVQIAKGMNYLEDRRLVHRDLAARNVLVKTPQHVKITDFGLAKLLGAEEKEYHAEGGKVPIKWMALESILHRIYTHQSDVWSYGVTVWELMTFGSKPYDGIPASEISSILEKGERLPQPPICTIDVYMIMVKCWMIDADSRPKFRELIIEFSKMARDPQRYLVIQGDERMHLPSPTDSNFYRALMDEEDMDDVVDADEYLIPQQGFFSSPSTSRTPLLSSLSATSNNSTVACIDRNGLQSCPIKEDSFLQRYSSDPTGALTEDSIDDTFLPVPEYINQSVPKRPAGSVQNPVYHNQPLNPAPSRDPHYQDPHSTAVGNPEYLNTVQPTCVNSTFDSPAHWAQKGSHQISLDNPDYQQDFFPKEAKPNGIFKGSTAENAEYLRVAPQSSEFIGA

[16] = test system: Epidermal growth factor receptor (Homo sapiens), P00533 [UNDEFINED MUTATION]; conditions: Compound concentration 1000.0 nM; remark: listed apart in the source
[17] = target: Vascular endothelial growth factor receptor 1 (Homo sapiens) (UniProt P17948); conditions: Compound concentration 1000.0 nM
[18] = test system: Receptor-type tyrosine-protein kinase FLT3 (Homo sapiens), P36888 [UNDEFINED MUTATION]; conditions: Compound concentration 1000.0 nM
[19] = test system: eIF-2-alpha kinase GCN2 (Homo sapiens), Q9P2K8 [S808G]; conditions: Compound concentration 1000.0 nM
[20] = target: Tyrosine-protein kinase HCK (Homo sapiens) (UniProt P08631); conditions: Compound concentration 1000.0 nM
[21] = target: Serine/threonine-protein kinase LATS1 (Homo sapiens) (UniProt O95835); conditions: Compound concentration 1000.0 nM
Sequence of Serine/threonine-protein kinase LATS1 (Homo sapiens) (O95835 whole entry): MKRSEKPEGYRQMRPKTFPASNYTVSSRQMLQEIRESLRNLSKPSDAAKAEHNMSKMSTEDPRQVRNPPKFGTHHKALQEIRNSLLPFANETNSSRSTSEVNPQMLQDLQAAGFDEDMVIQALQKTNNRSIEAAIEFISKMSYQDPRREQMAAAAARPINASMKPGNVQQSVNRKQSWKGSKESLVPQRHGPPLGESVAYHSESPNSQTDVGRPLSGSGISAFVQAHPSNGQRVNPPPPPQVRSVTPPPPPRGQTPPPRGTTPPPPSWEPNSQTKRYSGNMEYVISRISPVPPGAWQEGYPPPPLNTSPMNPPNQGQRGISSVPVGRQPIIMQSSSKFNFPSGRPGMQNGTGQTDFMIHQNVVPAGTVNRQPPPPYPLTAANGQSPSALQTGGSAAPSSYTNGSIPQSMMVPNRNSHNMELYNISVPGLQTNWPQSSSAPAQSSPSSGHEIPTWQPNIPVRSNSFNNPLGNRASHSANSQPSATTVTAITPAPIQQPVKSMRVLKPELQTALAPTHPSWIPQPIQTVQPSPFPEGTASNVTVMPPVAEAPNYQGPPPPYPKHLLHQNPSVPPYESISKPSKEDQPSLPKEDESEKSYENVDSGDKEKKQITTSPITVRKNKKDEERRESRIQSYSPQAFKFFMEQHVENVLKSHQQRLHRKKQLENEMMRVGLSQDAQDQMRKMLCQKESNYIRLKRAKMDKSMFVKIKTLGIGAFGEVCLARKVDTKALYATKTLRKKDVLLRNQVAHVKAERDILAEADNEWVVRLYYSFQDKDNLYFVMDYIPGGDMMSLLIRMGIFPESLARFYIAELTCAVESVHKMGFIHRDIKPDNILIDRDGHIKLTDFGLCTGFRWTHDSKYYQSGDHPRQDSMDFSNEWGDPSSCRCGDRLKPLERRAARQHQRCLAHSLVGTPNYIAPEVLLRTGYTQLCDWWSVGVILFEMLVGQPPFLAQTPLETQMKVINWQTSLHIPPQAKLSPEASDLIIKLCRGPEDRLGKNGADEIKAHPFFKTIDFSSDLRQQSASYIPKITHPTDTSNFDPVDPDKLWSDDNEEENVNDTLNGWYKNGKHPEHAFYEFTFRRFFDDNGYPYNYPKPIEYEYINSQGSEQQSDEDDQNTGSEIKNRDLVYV

[22] = target: Mitogen-activated protein kinase kinase kinase 1 (Homo sapiens) (UniProt Q13233); conditions: Compound concentration 1000.0 nM
[23] = target: MAP/microtubule affinity-regulating kinase 3 (Homo sapiens) (UniProt P27448); conditions: Compound concentration 1000.0 nM
[24] = target: Dual specificity mitogen-activated protein kinase kinase 3 (Homo sapiens) (UniProt P46734); conditions: Compound concentration 1000.0 nM
[25] = target: Dual specificity mitogen-activated protein kinase kinase 6 (Homo sapiens) (UniProt P52564); conditions: Compound concentration 1000.0 nM
[26] = target: Hepatocyte growth factor receptor (Homo sapiens) (UniProt P08581); conditions: Compound concentration 1000.0 nM
[27] = target: MAP kinase-interacting serine/threonine-protein kinase 1 (Homo sapiens) (UniProt Q9BUB5); conditions: Compound concentration 1000.0 nM
Sequence of MAP kinase-interacting serine/threonine-protein kinase 1 (Homo sapiens) (Q9BUB5 whole entry, looked up): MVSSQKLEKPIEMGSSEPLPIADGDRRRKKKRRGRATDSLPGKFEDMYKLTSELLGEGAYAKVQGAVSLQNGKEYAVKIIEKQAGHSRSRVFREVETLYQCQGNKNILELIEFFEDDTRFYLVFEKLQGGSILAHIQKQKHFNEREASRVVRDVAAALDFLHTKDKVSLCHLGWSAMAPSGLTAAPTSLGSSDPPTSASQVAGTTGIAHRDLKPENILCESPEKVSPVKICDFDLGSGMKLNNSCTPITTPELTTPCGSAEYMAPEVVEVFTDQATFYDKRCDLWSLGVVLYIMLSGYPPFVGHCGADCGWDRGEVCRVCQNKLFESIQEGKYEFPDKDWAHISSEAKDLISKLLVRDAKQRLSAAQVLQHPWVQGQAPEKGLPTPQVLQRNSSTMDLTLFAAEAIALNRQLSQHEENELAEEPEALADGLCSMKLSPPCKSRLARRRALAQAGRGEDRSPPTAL

[28] = target: Mitogen-activated protein kinase kinase kinase 10 (Homo sapiens) (UniProt Q02779); conditions: Compound concentration 1000.0 nM
[29] = target: Serine/threonine-protein kinase Nek1 (Homo sapiens) (UniProt Q96PY6); conditions: Compound concentration 1000.0 nM
[30] = target: Serine/threonine-protein kinase Nek3 (Homo sapiens) (UniProt P51956); conditions: Compound concentration 1000.0 nM
[31] = target: Serine/threonine-protein kinase NLK (Homo sapiens) (UniProt Q9UBE8); conditions: Compound concentration 1000.0 nM
Sequence of Serine/threonine-protein kinase NLK (Homo sapiens) (Q9UBE8 whole entry): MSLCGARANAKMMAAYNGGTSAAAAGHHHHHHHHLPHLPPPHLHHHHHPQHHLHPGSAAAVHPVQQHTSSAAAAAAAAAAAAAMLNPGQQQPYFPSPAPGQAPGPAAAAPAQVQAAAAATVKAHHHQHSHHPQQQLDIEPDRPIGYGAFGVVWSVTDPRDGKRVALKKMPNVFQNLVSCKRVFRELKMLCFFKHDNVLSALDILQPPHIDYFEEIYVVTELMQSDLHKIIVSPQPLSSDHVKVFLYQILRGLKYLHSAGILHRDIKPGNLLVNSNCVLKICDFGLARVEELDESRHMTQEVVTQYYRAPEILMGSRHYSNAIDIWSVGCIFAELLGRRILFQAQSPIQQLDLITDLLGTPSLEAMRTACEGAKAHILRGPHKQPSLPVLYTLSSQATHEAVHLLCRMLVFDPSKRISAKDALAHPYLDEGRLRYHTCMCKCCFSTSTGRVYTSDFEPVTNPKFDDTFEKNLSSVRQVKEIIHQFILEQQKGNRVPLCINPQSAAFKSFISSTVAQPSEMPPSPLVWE

[32] = target: Serine/threonine-protein kinase PAK 5 (Homo sapiens) (UniProt Q9P286); conditions: Compound concentration 1000.0 nM
Sequence of Serine/threonine-protein kinase PAK 5 (Homo sapiens) (Q9P286 whole entry, looked up): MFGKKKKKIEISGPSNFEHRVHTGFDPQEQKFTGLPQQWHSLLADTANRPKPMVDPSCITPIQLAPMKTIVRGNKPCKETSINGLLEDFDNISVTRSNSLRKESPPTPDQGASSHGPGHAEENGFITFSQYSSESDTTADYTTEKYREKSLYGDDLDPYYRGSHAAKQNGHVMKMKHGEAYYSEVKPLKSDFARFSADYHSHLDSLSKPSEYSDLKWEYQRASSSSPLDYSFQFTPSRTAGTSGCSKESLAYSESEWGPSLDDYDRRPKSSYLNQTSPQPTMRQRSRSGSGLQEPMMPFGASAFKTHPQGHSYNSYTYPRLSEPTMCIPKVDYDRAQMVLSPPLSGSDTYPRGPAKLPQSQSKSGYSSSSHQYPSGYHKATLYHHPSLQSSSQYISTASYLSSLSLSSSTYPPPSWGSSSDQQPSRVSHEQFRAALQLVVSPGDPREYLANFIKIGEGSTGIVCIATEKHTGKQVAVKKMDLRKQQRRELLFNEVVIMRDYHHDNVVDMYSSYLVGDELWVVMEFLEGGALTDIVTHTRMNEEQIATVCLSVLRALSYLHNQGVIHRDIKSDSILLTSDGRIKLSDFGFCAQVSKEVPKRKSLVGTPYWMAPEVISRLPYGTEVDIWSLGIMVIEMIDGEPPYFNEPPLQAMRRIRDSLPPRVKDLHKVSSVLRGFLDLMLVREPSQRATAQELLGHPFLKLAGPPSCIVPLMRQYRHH

[33] = target: cAMP-dependent protein kinase catalytic subunit beta (Homo sapiens) (UniProt P22694); conditions: Compound concentration 1000.0 nM
[34] = target: Serine/threonine-protein kinase PknB (Mycobacterium tuberculosis) (UniProt P9WI81); conditions: Compound concentration 1000.0 nM
[35] = target: SRSF protein kinase 2 (Homo sapiens) (UniProt P78362); conditions: Compound concentration 1000.0 nM
[36] = target: SRSF protein kinase 3 (Homo sapiens) (UniProt Q9UPE1); conditions: Compound concentration 1000.0 nM
[37] = target: Tyrosine-protein kinase SYK (Homo sapiens) (UniProt P43405); conditions: Compound concentration 1000.0 nM
[38] = target: Serine/threonine-protein kinase tousled-like 2 (Homo sapiens) (UniProt Q86UE8); conditions: Compound concentration 1000.0 nM
[39] = target: Tyrosine-protein kinase receptor TYRO3 (Homo sapiens) (UniProt Q06418); conditions: Compound concentration 1000.0 nM
[40] = target: Serine/threonine-protein kinase VRK2 (Homo sapiens) (UniProt Q86Y07); conditions: Compound concentration 1000.0 nM
[41] = target: Wee1-like protein kinase 2 (Homo sapiens) (UniProt P0C1S8); conditions: Compound concentration 1000.0 nM
Sequence of Wee1-like protein kinase 2 (Homo sapiens) (P0C1S8 whole entry, looked up): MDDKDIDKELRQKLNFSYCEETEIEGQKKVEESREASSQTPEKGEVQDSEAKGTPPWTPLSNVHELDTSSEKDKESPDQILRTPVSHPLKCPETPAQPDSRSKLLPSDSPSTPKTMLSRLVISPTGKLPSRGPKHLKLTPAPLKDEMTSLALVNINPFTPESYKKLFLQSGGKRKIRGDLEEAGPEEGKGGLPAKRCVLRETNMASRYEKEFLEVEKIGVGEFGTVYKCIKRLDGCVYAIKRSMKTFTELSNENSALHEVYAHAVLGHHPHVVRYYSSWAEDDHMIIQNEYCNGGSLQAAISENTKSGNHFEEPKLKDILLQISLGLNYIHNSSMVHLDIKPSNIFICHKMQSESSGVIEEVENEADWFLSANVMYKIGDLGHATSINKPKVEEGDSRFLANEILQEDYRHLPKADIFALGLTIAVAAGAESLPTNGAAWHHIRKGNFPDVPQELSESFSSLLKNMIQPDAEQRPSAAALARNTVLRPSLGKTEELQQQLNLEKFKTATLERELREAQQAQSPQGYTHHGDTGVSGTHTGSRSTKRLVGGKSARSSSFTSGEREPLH

[42] = target: Histamine H4 receptor (Homo sapiens) (UniProt Q9H3N8); conditions: Compound concentration 10.0 uM

Compound `O=C(NS(=O)(=O)c1ccc(NCC2CCOCC2)c([N+](=O)[O-])c1)c1ccc(N2CCN(Cc3ccc(C(F)(F)F)cc3-c3ccc(Cl)cc3)CC2)cc1Oc1cnc2[nH]ccc2c1` [A-1210227] has a % Inhibition of Control Values (Mean n=2) [1] of 3.7%, a % Inhibition of Control Specific Binding (Mean n=2) [2] of -10.1% and a % Inhibition of Control Specific Binding (Mean n=2) [3] of -11.8%. For the same compound, the % Inhibition of Control Specific Binding (Mean n=2) [4] was -4.9%, the % Inhibition of Control Specific Binding (Mean n=2) [5] was -104% and the inhibition at 60 min, 10 µM (Na+ channel (site 2)) was -8.2%. The residual activity [6] was 100%, the residual activity [7] was 77% and the residual activity [8] was 100%. For the same compound, the residual activity [9] was 92%, the residual activity [10] was 100% and the residual activity [11] was 100%. The residual activity [12] was 63%, the residual activity [13] was 93% and the residual activity [14] was 100%. For the same compound, the residual activity [15] was 96%, the residual activity [16] was 81% and the residual activity [17] was 100%. For the same compound, the residual activity [18] was 66%, the residual activity [19] was 85% and the residual activity [20] was 99%. It also gave a residual activity [21] of 100%, a residual activity [22] of 100% and a residual activity [23] of 100%. The residual activity [24] was 80%, the residual activity [25] was 97% and the residual activity [26] was 93%. For the same compound, the residual activity [27] was 99%, the residual activity [28] was 95% and the residual activity [29] was 99%. The residual activity [30] was 85%, the residual activity [31] was 93% and the residual activity [32] was 95%. For the same compound, the residual activity [33] was 91%, the residual activity [34] was 90% and the residual activity [35] was 100%. The residual activity [36] was 100%, the residual activity [37] was 99% and the residual activity [38] was 100%. The residual activity [39] was 92%, the residual activity [40] was 89% and the residual activity [41] was 100%. The inhibition [42] was -2.4%.

`CO[C@H]1CC[C@H](CNc2ccc(S(=O)(=O)NC(=O)c3ccc(N4CCN(CC5=C(c6ccc(Cl)cc6)CC(C)(C)CC5)CC4)cc3Oc3cnc4[nH]ccc4c3)cc2[N+](=O)[O-])CC1` [A-1211212] gave a % Inhibition of Control Values (Mean n=2) [1] of 6.9%, a % Inhibition of Control Specific Binding (Mean n=2) [2] of -36.3% and a % Inhibition of Control Specific Binding (Mean n=2) [3] of -6.7%. It also gave a % Inhibition of Control Specific Binding (Mean n=2) [4] of -1%, a % Inhibition of Control Specific Binding (Mean n=2) [5] of 22.4% and an inhibition at 60 min, 10 µM (Na+ channel (site 2)) of -2.3%. For the same compound, the residual activity [6] was 85%, the residual activity [7] was 72% and the residual activity [8] was 100%. It also gave a residual activity [9] of 73%, a residual activity [10] of 96% and a residual activity [11] of 100%. For the same compound, the residual activity [12] was 100%, the residual activity [13] was 84% and the residual activity [14] was 75%. It also gave a residual activity [15] of 100%, a residual activity [16] of 61% and a residual activity [17] of 85%. It also gave a residual activity [18] of 88%, a residual activity [19] of 96% and a residual activity [20] of 71%. For the same compound, the residual activity [21] was 87%, the residual activity [22] was 100% and the residual activity [23] was 96%. It also gave a residual activity [24] of 92%, a residual activity [25] of 84% and a residual activity [26] of 68%. The residual activity [27] was 90%, the residual activity [28] was 89% and the residual activity [29] was 77%. It also gave a residual activity [30] of 66%, a residual activity [31] of 100% and a residual activity [32] of 99%. It also gave a residual activity [33] of 88%, a residual activity [34] of 86% and a residual activity [35] of 55%. For the same compound, the residual activity [36] was 100%, the residual activity [37] was 62% and the residual activity [38] was 87%. For the same compound, the residual activity [39] was 84%, the residual activity [40] was 71% and the residual activity [41] was 81%. The inhibition [42] was 4.94%.
